Experimental data from article PMC9671962 (Communications Biology, 2022).
Values joined by “and” are separate entries in the source; they are usually repeats but may differ in a detail not shown here. Identical values can stand only once.

Legend:
[1] = tested on: COG-N-426x-FELIX; assay: Pre-clinical efficacy study, COG-N-426x-FELIX PDX; type: in vivo, mouse; conditions: for Tumor Volume: COG-N-426x-FELIX tumor re-challenge (24 MBq/kg/fraction x 4); for EFS by AOC method / Tumor response (% growth from study initiation at ~ 200 mm3): single mouse
Experimental: (§1) Patient demographics and genetic characteristics are listed in (Supplementary Tables 1, 2)[17]. The maximum tolerated dose (MTD) was determined to be 36 MBq/kg administered by intra-peritoneal injection twice weekly for a total of 4 dose fractions and this fractionated regimen was used in all studies (Supplementary Fig. 1)[18],[19]. […] Nine of 11 PDX models were MYCN amplified (Fig. 1b), which is a hallmark of high-risk neuroblastoma. Tumor response was measured as the maximum percent decrease in tumor volume after treatment and event-free survival (EFS) was measured by the area over the curve method with tumor events pre-defined by tumor growth exceeding 2 cm[3],[18].
(§2) The use of 2 mice per arm was based on the previously reported statistical analysis. PDX tumors were implanted into the right flank of 5 to 6-weeks old female mice weighing about 20–25 grams. […] Two additional dose levels of 12, and 24 MBq/kg/fraction were assessed in a subset of models and were administered as stated above. In two models treated at the 24 MBq/kg/fraction dose level we re-challenged tumor response at the time of tumor progression with an additional 4 dose fractions at 24 MBq/kg/fraction given twice weekly. Doses were prepared in 500 µL total volume. An equal volume of saline was used for the vehicle group. Tumors were measured using a digital caliper at the initiation of the study and two times per week during the treatment period. Tumor volumes were calculated as volume = ([…]∗0.5236)/1000. Weights were obtained twice weekly and mice were monitored daily for signs of toxicity. […] Tumor response was assessed by best response defined as greatest reduction in tumor volume following the last dose and is presented as percent change in tumor volume. Event-free survival was determined by area over the curve method that calculates the time to tumor event, which was defined as tumors reaching or exceeding a size ≥ 2 cm^3.
Animal studies were performed in female mice due to the lack of sex-related differences for [^211At]PTT tolerability from initial dose response studies performed in female and male mice. Female mice were chosen due to their underlying behavior towards other study subjects that reduced nonstudy-related causes for decreased wellness. Pre-clinical efficacy studies were performed through “single mouse testing” to more closely recapitulate a clinical trial. […] Number size for treatment groups was determined by model tumor growth reproducibility, which was previously shown to have less than 5% normal variation with at least two animals. Statistical tests for tumor response and event-free survival (EFS) were performed as a grouped analysis that included all tumor models treated at each respective dose level (n = 2 per model per dose level). Statistical differences between treatment groups for tumor response was performed by paired-model T-test that compared reduction in tumor volume for the 36 MBq/kg dose level vs. 24 MBq/kg or 12 MBq/kg. Event free survival was measured by area over the curve method to quantify time to event, which was set as tumor growth exceeding 2 cm[3],[19]. Differences in EFS were tested across all treated models for each respective dose level, and against untreated controls, by paired-model ANOVA analysis. Associations of drug target expression and response were performed by linear regression analysis of EFS and PARP1 mRNA expression. Genetic signatures were visually presented as a function of EFS and no statistical tests were applied. Blood and marrow toxicity studies were performed with n = 5 sample sizes and powered to detect >20% differences between untreated controls and treated animals. Results were tested for significance by one-way ANOVA comparison from untreated controls. Marrow colony formation assays were performed in replicates of 2 for each mouse subject, dependent on marrow isolation, and all replicates are included in final analyses. […]

[2] = tested on: NB-SDx; assay: Pre-clinical efficacy study, NB-SDx PDX; type: in vivo; conditions: single mouse
Experimental: as §1, §2
Animal studies were performed in female mice due to the lack of sex-related differences for [^211At]PTT tolerability from initial dose response studies performed in female and male mice. Female mice were chosen due to their underlying behavior towards other study subjects that reduced nonstudy-related causes for decreased wellness. Pre-clinical efficacy studies were performed through “single mouse testing” to more closely recapitulate a clinical trial. […] Number size for treatment groups was determined by model tumor growth reproducibility, which was previously shown to have less than 5% normal variation with at least two animals. […] Event free survival was measured by area over the curve method to quantify time to event, which was set as tumor growth exceeding 2 cm[3],[19]. […]

[3] = tested on: NB-1691x; assay: Pre-clinical efficacy study, NB-1691x PDX; type: in vivo; conditions: 36 MBq/kg/fraction x 4 fractions, single mouse
Experimental: as §1
The use of 2 mice per arm was based on the previously reported statistical analysis. […] Two additional dose levels of 12, and 24 MBq/kg/fraction were assessed in a subset of models and were administered as stated above. […] Tumors were measured using a digital caliper at the initiation of the study and two times per week during the treatment period. Tumor volumes were calculated as volume = ((diameter^1/2 + diameter^2/2)^3∗0.5236)/1000. Weights were obtained twice weekly and mice were monitored daily for signs of toxicity. […] Tumor response was assessed by best response defined as greatest reduction in tumor volume following the last dose and is presented as percent change in tumor volume. […]

[4] = tested on: PARP1; assay: Clinical PET imaging / first-in-human dosimetry of [^18F]FTT and extrapolation to [^211At]PTT; type: in vivo
[5] = cited from earlier work
[6] = COG-N-426x-FELIX, 24 MBq/kg/fraction x 4 fractions
[7] = COG-N-426x-FELIX, 36 MBq/kg/fraction x 4 fractions
[8] = 24 MBq/kg/fraction x 4 fractions
[9] = 36 MBq/kg/fraction x 4 fractions

Compound: O=C1NCCn2c(-c3ccc([211At])cc3)nc3cccc1c32 [[^211At]PTT, Astatine-211-parthanatine]
- Tumor Volume ([1]; week 0): 0.25 cm3
- Tumor Volume ([1]; week 0.4): 0.2 cm3
- Tumor Volume ([1]; week 0.9): 0.05 cm3
- Tumor Volume ([1]; week 1.3): 0.08 cm3
- Tumor Volume ([1]; week 1.9): 0.01 cm3
- Tumor Volume ([1]; week 2.3): 0.01 cm3
- Tumor Volume ([1]; week 2.9): 0 cm3
- Tumor Volume ([1]; week 3.4): 0.01 cm3
- Tumor Volume ([1]; week 3.9): 0 cm3
- Tumor Volume ([1]; week 4.4): 0 cm3
- Tumor Volume ([1]; week 4.9): 0 cm3
- Tumor Volume ([1]; week 5.3): 0 cm3
- Tumor Volume ([1]; week 5.9): 0 cm3
- Tumor Volume ([1]; week 6.3): 0.02 cm3
- Tumor Volume ([1]; week 6.9): 0.19 cm3
- Tumor Volume ([1]; week 7.3): 0.13 cm3
- Tumor Volume ([1]; week 7.9): 0.03 cm3
- Tumor Volume ([1]; week 8.3): 0.02 cm3
- Tumor Volume ([1]; week 8.9): 0 cm3
- Tumor Volume ([1]; week 9.3): 0 cm3
- Tumor Volume ([1]; week 9.9): 0 cm3
- Tumor Volume ([1]; week 10.3): 0 cm3
- Tumor Volume ([1]; week 10.9): 0 cm3
- Tumor Volume ([1]; week 11.3): 0 cm3
- Tumor Volume ([1]; week 11.9): 0 cm3
- Tumor Volume ([1]; week 12.3): 0 cm3
- Tumor Volume ([1]; week 12.9): 0 cm3
- Tumor Volume ([1]; week 13.3): 0 cm3
- Tumor Volume ([1]; week 13.9): 0 cm3
- Tumor Volume ([1]; week 14.3): 0 cm3
- Tumor Volume ([1]; week 14.9): 0 cm3
- EFS1 (initial treatment) ([1]; COG-N-426x-FELIX, 24 MBq/kg/fraction x 4, re-challenged mouse n = 1): 49 days and 49.5 days
- EFS by AOC method [1, 6]: 103. 9 Days
- Tumor response (% growth from study initiation at ~ 200 mm3) [1, 6]: -100%
- EFS by AOC method [1, 7]: 104. 1 Days and 104.134 Days and 104.127 Days
- Tumor response (% growth from study initiation at ~ 200 mm3) [1, 7]: -100%
- EFS2 (re-challenge treatment) ([1]; COG-N-426x-FELIX, re-challenge 24 MBq/kg/fraction x 4 at tumor progression, no measurable disease): 59 days
- EFS by AOC method [2, 8]: 44.1 days and 46.5 days and 44.0589 days and 46.4742 days
- Tumor response (% growth from study initiation at ~ 200 mm3) [2, 8]: -80.9524% and -80%
- EFS by AOC method [2, 9]: 59.408 days and 51.1551 days
- Tumor response (% growth from study initiation at ~ 200 mm3) [2, 9]: -96.9697% and -85.7143%
- EFS by AOC method [3]: 50.9799 days and 78.469 days
- Tumor response (% growth from study initiation at ~ 200 mm3) [3]: -100%
- extrapolated equivalent dose to the kidneys ([4]; RBE of 5 for alpha radiation): approximately 2 mSv/MBq
- estimated SUVmax in neuroblastoma tumors ([4]; estimate from [^18F]FTT clinical data and pre-clinical uptake): approximately 10
- rough estimate of absorbed tumor dose ([4]; patient, biological half-life 5.1 hr and SUVmax of 10): 0.17 Gy per MBq/kg
- estimated renal absorbed dose ([4]; using human biodistribution results of [^18F]FTT in adults): 0.25–0.41 mGy/MBq
- fold more cytotoxic than the non-radioactive PARP inhibitor analog (KX1) [5]: ~1 billion
